# Reference: patent publication US7956053B2, “Inhibitors of tyrosine kinases” (Novartis AG, priority 2002, dated 2011)
# Legend:
# [1] = molecular target: T1, c-Abl (Homo sapiens, UniProt P00519); experiment: Test for activity against c-Abl protein tyrosine kinase (filter binding assay); format: biochemical
# T1 construct: The His-tagged kinase domain of c-Abl is cloned and expressed in the baculovirus/Sf9 system; His; made in house; host or cells: baculovirus/Sf9
# T1 sequence (P00519 242-493 limits assumed): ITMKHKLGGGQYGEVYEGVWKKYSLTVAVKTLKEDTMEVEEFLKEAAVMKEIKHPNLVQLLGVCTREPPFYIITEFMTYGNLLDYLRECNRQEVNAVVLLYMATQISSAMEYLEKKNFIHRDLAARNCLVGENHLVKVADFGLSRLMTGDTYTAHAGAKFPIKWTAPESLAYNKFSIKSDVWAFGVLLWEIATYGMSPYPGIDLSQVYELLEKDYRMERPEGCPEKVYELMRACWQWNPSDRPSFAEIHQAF
# Procedure: Test for activity against c-Abl protein tyrosine kinase. The test is conducted as a filter binding assay as follows: The His-tagged kinase domain of c-Abl is cloned and expressed in the baculovirus/Sf9 system as described by Bhat et al., J Biol. Chem. 272, 16170-5 (1997). A protein of 37 kD (c-Abl kinase) is purified by a two-step procedure over a Cobalt metal chelate column followed by an anion exchange column with a yield of 1-2 mg/L of Sf9 cells. The purity of the c-Abl kinase is >90% as judged by SDS-PAGE after Coomassie blue staining. The assay contains: c-Abl kinase (50 ng), 20 mM Tris.HCl, pH 7.5, 10 mM MgCl2, 10 μM Na3VO4, 1 mM DTT and 0.06 μCi/assay [γ^33 P]-ATP (5 μM ATP) using 30 μg/mL poly-Ala,Glu,Lys,Tyr-6:2:5:1 (Poly-AEKY, Sigma P1152) in the presence of 1% DMSO, total volume of 30 μL. Reactions are terminated by adding 10 μL of 250 mM EDTA, and 30 μL of the reaction mixture is transferred onto Immobilon-PVDF membrane (Millipore, Bedford, Mass., USA) previously soaked for 5 min with methanol, rinsed with water, then soaked for 5 min with 0.5% H3PO4 and mounted on vacuum manifold with disconnected vacuum source. After spotting all samples, vacuum is connected and each well rinsed with 200 μL 0.5% H3PO4. Membranes are removed and washed on a shaker with 0.5% H3PO4 (4 times) and once with ethanol. Membranes are counted after drying at ambient temperature, mounting in Packard TopCount 96-well frame, and addition of 10 μL/well of Microscint™ (Packard).
# (§1) Enzymatic (c-Abl, KDR, Flt3) in vitro inhibition data are presented as % inhibition at 10 μM. The measurements are made as described above in the general description.
# [2] = molecular target: KDR (Homo sapiens, UniProt P35968); experiment: Enzymatic KDR in vitro inhibition; format: biochemical
# Procedure: Test for activity against VEGF-receptor tyrosine kinase. The test is conducted using Flt-1 VEGF-receptor tyrosine kinase. The detailed procedure is as follows: 30 μL kinase solution (10 ng of the kinase domain of Flt-1, Shibuya et al., Oncogene 5, 519-24 [1990]) in 20 mM Tris.HCl pH 7.5, 3 mM manganese dichloride (MnCl2), 3 mM magnesium chloride (MgCl2), 10 μM sodium vanadate, 0.25 mg/mL polyethylenglycol (PEG) 20000, 1 mM dithiothreitol and 3 μg/μL poly(Glu,Tyr) 4:1 (Sigma, Buchs, Switzerland), 8 μM [^33P]-ATP (0.2 μCi), 1% DMSO, and 0 to 100 μM of the compound to be tested are incubated together for 10 minutes at room temperature. The reaction is then terminated by the addition of 10 μL 0.25 M ethylenediaminetetraacetate (EDTA) pH 7. Using a multichannel dispenser (LAB SYSTEMS, USA), an aliquot of 20 μL is applied to a PVDF (=polyvinyl difluoride) Immobilon P membrane (Millipore, Bedford, USA), through a Gibco-BRL microtiter filter manifold and connected to a vacuum. Following complete elimination of the liquid, the membrane is washed 4 times successively in a bath containing 0.5% phosphoric acid (H3PO4) and once with ethanol, incubated for 10 minutes each time while shaking, then mounted in a Hewlett Packard TopCount Manifold and the radioactivity measured after the addition of 10 μL Microscint® (β-scintillation counter liquid). IC50-values are determined by linear regression analysis of the percentages for the inhibition of each compound in at least four concentrations (as a rule 0.01, 0.1, 1.0 and 10 μmol).
# as §1
# Sequence of KDR (P35968 20-1356): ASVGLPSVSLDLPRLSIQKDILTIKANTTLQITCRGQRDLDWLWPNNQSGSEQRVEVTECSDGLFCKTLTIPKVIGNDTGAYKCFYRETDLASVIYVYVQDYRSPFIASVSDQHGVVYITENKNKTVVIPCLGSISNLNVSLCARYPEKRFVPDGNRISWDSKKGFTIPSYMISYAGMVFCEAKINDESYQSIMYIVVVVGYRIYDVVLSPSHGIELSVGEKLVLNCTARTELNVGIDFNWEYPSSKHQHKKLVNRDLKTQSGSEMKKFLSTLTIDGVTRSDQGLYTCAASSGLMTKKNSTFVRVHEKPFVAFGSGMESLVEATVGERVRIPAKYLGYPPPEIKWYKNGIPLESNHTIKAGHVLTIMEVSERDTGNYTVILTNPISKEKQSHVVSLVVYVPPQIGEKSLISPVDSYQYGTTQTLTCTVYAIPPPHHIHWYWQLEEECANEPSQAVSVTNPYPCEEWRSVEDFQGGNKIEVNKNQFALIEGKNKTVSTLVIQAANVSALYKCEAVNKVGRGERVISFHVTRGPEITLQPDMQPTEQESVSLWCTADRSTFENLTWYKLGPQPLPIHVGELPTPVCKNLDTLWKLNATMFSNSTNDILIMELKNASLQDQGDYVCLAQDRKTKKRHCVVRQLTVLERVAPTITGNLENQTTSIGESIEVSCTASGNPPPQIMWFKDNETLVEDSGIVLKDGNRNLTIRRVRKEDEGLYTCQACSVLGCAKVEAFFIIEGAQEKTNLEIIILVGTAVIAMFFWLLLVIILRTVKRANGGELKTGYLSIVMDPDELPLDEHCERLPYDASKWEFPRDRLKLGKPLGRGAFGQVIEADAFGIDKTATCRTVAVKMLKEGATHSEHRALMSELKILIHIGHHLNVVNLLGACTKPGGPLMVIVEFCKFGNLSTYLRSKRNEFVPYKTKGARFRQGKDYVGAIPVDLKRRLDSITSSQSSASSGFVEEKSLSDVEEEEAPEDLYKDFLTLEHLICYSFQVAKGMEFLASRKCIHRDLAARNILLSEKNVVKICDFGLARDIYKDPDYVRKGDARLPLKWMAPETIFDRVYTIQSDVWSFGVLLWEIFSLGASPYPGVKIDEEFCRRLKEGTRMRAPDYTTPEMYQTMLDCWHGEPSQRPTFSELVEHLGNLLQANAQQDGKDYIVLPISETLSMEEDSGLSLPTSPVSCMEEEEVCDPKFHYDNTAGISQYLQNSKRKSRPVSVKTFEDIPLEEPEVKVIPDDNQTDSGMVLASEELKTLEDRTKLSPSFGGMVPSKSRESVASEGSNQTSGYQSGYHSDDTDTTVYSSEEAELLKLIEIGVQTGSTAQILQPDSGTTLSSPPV
SMILES,inhibition at 10 µM [1] [%],inhibition at 10 µM [2] [%]
"Cc1ccc(C(=O)N2CCN(CC(=O)N3CCCC3)CC2)cc1Nc1nccc(-c2cccnc2)n1 [Example 42, 1-[4-Methyl-3-[[4-(3-pyridinyl)-2-pyrimidinyl]amino]benzoyl]-4-[2-oxo-2-(1-pyrrolidinyl)ethyl]piperazine]",32,56
"Cc1ccc(C(=O)N2CCN(CC(=O)N3CCOCC3)CC2)cc1Nc1nccc(-c2cccnc2)n1 [Example 41, 4-{{4-[4-Methyl-3-[[4-(3-pyridinyl)-2-pyrimidinyl]amino]benzoyl]-1-piperazinyl}acetyl}morpholine]",13,52
"Cc1ccc(C(=O)N2CCN(c3ccccn3)CC2)cc1Nc1nccc(-c2cccnc2)n1 [Example 3, 1-[4-Methyl-3-[[4-(3-pyridinyl)-2-pyrimidinyl]amino]benzoyl]-4-(2-pyridinyl)piperazine]",66,71
"Cc1ccc(C(=O)Nc2ccc(CN3CCN(C)CC3)cc2)cc1Nc1nccc(-c2cccnc2)n1 [Example 2, N-[4-Methyl-3-[[4-(3-pyridinyl)-2-pyrimidinyl]amino]benzoyl]-4-[(4-methyl-1-piperazinyl)methyl]benzeneamine]",97,73
"Cc1ccc(C(=O)NCc2ccncc2)cc1Nc1nccc(-c2cccnc2)n1 [Example 6, 4-Methyl-N-(4-pyridinylmethyl)-3-[[4-(3-pyridinyl)-2-pyrimidinyl]amino]benzamide]",51,56
"CCOC(=O)C1CCN(Cc2cccc(NC(=O)c3ccc(C)c(Nc4nccc(-c5cccnc5)n4)c3)c2)CC1 [Example 64, 1-[[3-[[4-Methyl-3-[[4-(3-pyridinyl)-2-pyrimidinyl]amino]benzoyl]amino]phenyl]-methyl]-4-piperidinecarboxylic acid ethyl ester]",56,59
"CCOC(=O)C(NC(=O)c1ccc(C)c(Nc2nccc(-c3cccnc3)n2)c1)C(=O)OCC [Example 65, [[4-Methyl-3-[[4-(3-pyridinyl)-2-pyrimidinyl]amino]benzoyl]amino]propanedioic acid diethyl ester]",96,60
"Cc1ccc(C(=O)N[C@H]2CCCCNC2=O)cc1Nc1nccc(-c2cccnc2)n1 [Example 14, N-[(3S)-Hexahydro-2-oxo-1H-azepin-3-yl]-4-methyl-3-[[4-(3-pyridinyl)-2-pyrimidinyl]amino]benzamide]",49,54
"Cc1ccc(NC(=O)c2ccc(C)c(Nc3nccc(-c4cccnc4)n3)c2)nc1 [Example 58, 4-Methyl-N-(5-methyl-2-pyridinyl)-3-[[4-(3-pyridinyl)-2-pyrimidinyl]amino]benzamide]",40,26
"COCCNC(=O)c1ccc(C)c(Nc2nccc(-c3cccnc3)n2)c1 [Example 19, N-(2-methoxyethyl)-4-methyl-3-[[4-(3-pyridinyl)-2-pyrimidinyl]amino]benzamide]",41,33
"Cc1ccc(C(=O)NC(c2ccccc2)c2ccccc2)cc1Nc1nccc(-c2cccnc2)n1 [Example 51, N-(Diphenylmethyl)-4-methyl-3-[[4-(3-pyridinyl)-2-pyrimidinyl]amino]benzamide]",92,52
"Cc1ccc(C(=O)NC2CCCCC2)cc1Nc1nccc(-c2cccnc2)n1 [Example 13, N-Cyclohexyl-4-methyl-3-[[4-(3-pyridinyl)-2-pyrimidinyl]amino]benzamide]",78,48
"Cc1ccc(C(=O)NCCN2CCOCC2)cc1Nc1nccc(-c2cccnc2)n1 [Example 10, 4-Methyl-N-(2-morpholinoethyl)-3-[[4-(3-pyridinyl)-2-pyrimidinyl]amino]-benzamide]",57,48
"Cc1ccc(C(=O)NC2CCN(Cc3ccccc3)CC2)cc1Nc1nccc(-c2cccnc2)n1 [Example 5, 4-Methyl-N-[1-(phenylmethyl)-4-piperidinyl]-3-[[4-(3-pyridinyl)-2-pyrimidinyl]amino]benzamide]",71,60
"CCOCCNC(=O)c1ccc(C)c(Nc2nccc(-c3cccnc3)n2)c1 [Example 56, N-(2-Ethoxyethyl)-4-methyl-3-[[4-(3-pyridinyl)-2-pyrimidinyl]amino]benzamide]",40,44
"Cc1ccc(C(=O)NCCc2ccccn2)cc1Nc1nccc(-c2cccnc2)n1 [Example 4, 4-Methyl-N-[2-(2-pyridinyl)ethyl]-3-[[4-(3-pyridinyl)-2-pyrimidinyl]amino]-benzamide]",77,46
"Cc1ccc(C(=O)NCC2CC2)cc1Nc1nccc(-c2cccnc2)n1 [Example 18, N-(Cyclopropylmethyl)-4-methyl-3-[[4-(3-pyridinyl)-2-pyrimidinyl]amino]-benzamide]",56,62
"Cc1ccc(C(=O)NCc2ccc(S(C)(=O)=O)cc2)cc1Nc1nccc(-c2cccnc2)n1 [Example 24, 4-Methyl-N-[4-(methylsulfonyl)benzyl]-3-[[4-(3-pyridinyl)-2-pyrimidinyl]amino]benzamide]",80,70
"Cc1ccc(C(=O)N2CCN(c3ccncc3)CC2)cc1Nc1nccc(-c2cccnc2)n1 [Example 37, 1-[4-Methyl-3-[[4-(3-pyridinyl)-2-pyrimidinyl]amino]benzoyl]-4-(4-pyridinyl)-piperazine]",28,82
